This assay addresses Alpha-glucosidase MAL12 (Saccharomyces cerevisiae (strain ATCC 204508 / S288c), UniProt P53341). The assay can be described thus: Alpha-glucosidase Assay. The procedure: Typically, α-glucosidase activity was assayed in 50 mM phosphate buffer (pH 6.8) containing 5% v/v DMSO and PNP glycoside was used as a substrate. The inhibitors were pre-incubated with enzyme at 37 °C for 0.5 h. The substrate was then added and the enzymatic reaction was carried out at 37 °C for 60 min. The reaction was monitored spectrophotometrically by measuring the absorbance at 400 nm.
Alpha-glucosidase MAL12, sequence (P53341 whole entry): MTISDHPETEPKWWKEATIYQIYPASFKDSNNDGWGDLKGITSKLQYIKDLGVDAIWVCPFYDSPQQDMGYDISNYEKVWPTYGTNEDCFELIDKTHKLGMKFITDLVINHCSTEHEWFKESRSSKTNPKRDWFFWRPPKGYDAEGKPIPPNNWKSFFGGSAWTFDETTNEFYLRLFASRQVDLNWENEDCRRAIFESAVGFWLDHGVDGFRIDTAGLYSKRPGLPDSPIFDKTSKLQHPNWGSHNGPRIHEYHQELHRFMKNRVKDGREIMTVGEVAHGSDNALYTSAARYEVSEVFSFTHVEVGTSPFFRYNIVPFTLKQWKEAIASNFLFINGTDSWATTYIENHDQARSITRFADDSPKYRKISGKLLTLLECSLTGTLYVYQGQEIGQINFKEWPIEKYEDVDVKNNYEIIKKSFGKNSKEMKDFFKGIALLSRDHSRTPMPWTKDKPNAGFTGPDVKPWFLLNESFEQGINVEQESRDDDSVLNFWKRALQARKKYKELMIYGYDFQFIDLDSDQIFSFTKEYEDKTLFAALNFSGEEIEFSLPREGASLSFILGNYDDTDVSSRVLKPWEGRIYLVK
Compound `COc1ccc(C(=O)CSc2nnc3c(n2)[nH]c2ccccc23)cc1` [2-(5H-[1,2,4]triazino[5,6-b]indol-3-ylthio)-1-(4-methoxyphenyl)-ethanone (4)] showed an IC50 of 28.9 µM.

The compound `O=C(CSc1nnc2c(n1)[nH]c1ccccc12)c1cccc(Br)c1` [2-(5H-[1,2,4]triazino[5,6-b]indol-3-ylthio)-1-(3-bromophenyl)-ethanone (11)] returned an IC50 of 37.1 µM.

Take `COc1ccccc1C(=O)CSc1nnc2c(n1)[nH]c1ccccc12` [2-(5H-[1,2,4]triazino[5,6-b]indol-3-ylthio)-1-(2-methoxyphenyl)-ethanone (9)]: the IC50 is 51.6 µM.

On to `O=C(CSc1nnc2c(n1)[nH]c1ccccc12)c1cccc(F)c1` [2-(5H-[1,2,4]triazino[5,6-b]indol-3-ylthio)-1-(3-flourophenyl)-ethanone (5)], for which the IC50 came to 38.1 µM.

On to `CC(Sc1nnc2c(n1)[nH]c1ccccc12)C(=O)c1ccccc1` (stereo not given) [2-(5H-[1,2,4]triazino[5,6-b]indol-3-ylthio)-1-phenylpropane-1-one (8)], for which the IC50 amounted to 36.9 µM.

`O=C(CSc1nnc2c(n1)[nH]c1ccccc12)c1cccc(O)c1` [2-(5H-[1,2,4]triazino[5,6-b]indol-3-ylthio)-1-(3-hydroxyphenyl)-ethanone (1)]: 2.46 µM corresponded to half-maximal inhibition (IC50).

As for `O=C(CSc1nnc2c(n1)[nH]c1ccccc12)c1cc2ccccc2oc1=O` [3-(2-(5H-[1,2,4]triazino[5,6-b]indol-3-ylthio)acetyl)-2H-chromen-2-one (7)], the IC50 was 37.4 µM.

In the case of `COc1cccc(C(=O)CSc2nnc3c(n2)[nH]c2ccccc23)c1` [2-(5H-[1,2,4]triazino[5,6-b]indol-3-ylthio)-1-(3-methoxyphenyl)-ethanone (10)], half-maximal inhibition (IC50) required 313 µM.

In turn, `O=C(CSc1nnc2c(n1)[nH]c1ccccc12)c1ccc(-c2ccccc2)cc1` [2-(5H-[1,2,4]triazino[5,6-b]indol-3-ylthio)-1-(biphenyl-4-yl)-ethanone (2)] gave an IC50 of 78.4 µM.

On to `O=C(CSc1nnc2c(n1)[nH]c1ccccc12)c1ccc(Br)cc1` [2-(5H-[1,2,4]triazino[5,6-b]indol-3-ylthio)-1-(4-bromophenyl)-ethanone (3)], for which the IC50 was determined as 37.8 µM.
